Patent US10376520B2, “Methods for the treatment of cardiovascular disorders” (Galapagos NV, priority 2015, dated 2019)

Tested on: RA patients
Test: [HDL] determination, Study 1 (RA patients, add-on to MTX)
Assay type: in vivo, human
Protocol: Double-blind, placebo-controlled add on study in subjects with moderately to severely active RA who have an inadequate response to methotrexate (MTX) (oral or parenteral).
595 subjects randomized to one of 6 dose regimens of Compound 1 (dosed as a [Compound 1:HCl:3H2O]) (3 dose levels administered either once or twice daily) or placebo on top of each subject's stable dose of MTX.
Compound 1 (dosed as a [Compound 1:HCl:3H2O]) is dosed for twelve weeks once daily (q.d.) (50 mg, 100 mg or 200 mg) or twice daily (b.i.d.) (25 mg, 50 mg or 100 mg); or placebo.
At Week 12, the subjects on placebo who have not achieved 20% improvement in swollen joint count (SJC66) and tender joint count (TJC68) are re-randomized automatically to receive Compound 1 (dosed as a [Compound 1:HCl:3H2O]) either at 100 mg q.d. or 50 mg b.i.d. doses in a blinded fashion; subjects on 50 mg q.d. who have not achieved 20% improvement in SJC66 and TJC68 will be assigned to 100 mg q.d. and subjects on 25 mg b.i.d. that have not achieved a 20% improvement in SJC66 and TJC68 will be assigned to 50 mg b.i.d. Subjects who switch treatment at week 12 are handled as if they discontinued at week 12 for the purpose of statistical analysis, whereas subjects in the other groups will maintain their randomized treatment until Week 24.
This assay relies on a homogeneous enzymatic colorimetric test. In the presence of magnesium ions, dextran sulfate selectively forms water-soluble complexes with LDL, VLDL and chylomicrons which are resistant to PEG-modified enzymes.
The cholesterol concentration of [HDL]-cholesterol is determined enzymatically by cholesterol esterase and cholesterol oxidase coupled with PEG to the amino groups (approx. 40%).
In the presence of peroxidase, the hydrogen peroxide generated reacts with 4-amino-antipyrine and Sodium N-(2-hydroxy-3-sulfopropyl)-3,5-dimethoxyaniline (HSDA) to form a purple-blue dye. The color intensity of this dye is directly proportional to the cholesterol concentration and is measured photometrically.
Human serum and plasma samples [HDL] determination was done on a Roche/Hitachi Cobas c 701/702 system which automatically calculate the analyte concentration of each sample. Samples containing precipitates are centrifuged before performing the assay.

[1] = 2 x 50 mg b.i.d. (N = 85), week 12
[2] = 2 x 100 mg b.i.d. (N = 84), week 1
[3] = 2 x 100 mg b.i.d. (N = 84), week 2
[4] = 2 x 100 mg b.i.d. (N = 84), week 4
[5] = 2 x 100 mg b.i.d. (N = 84), week 8
[6] = 2 x 100 mg b.i.d. (N = 84), week 12
[7] = continued 25 mg b.i.d (N = 69), week 1
[8] = continued 25 mg b.i.d (N = 69), week 2
[9] = continued 25 mg b.i.d (N = 69), week 4
[10] = continued 25 mg b.i.d (N = 69), week 8
[11] = continued 25 mg b.i.d (N = 69), week 12
[12] = continued 25 mg b.i.d (N = 69), week 16
[13] = continued 25 mg b.i.d (N = 69), week 20
[14] = continued 25 mg b.i.d (N = 69), week 24
[15] = continued 50 mg b.i.d. (N = 85), week 1
[16] = continued 50 mg b.i.d. (N = 85), week 2
[17] = continued 50 mg b.i.d. (N = 85), week 4
[18] = continued 50 mg b.i.d. (N = 85), week 8
[19] = continued 50 mg b.i.d. (N = 85), week 12
[20] = continued 50 mg b.i.d. (N = 85), week 16
[21] = continued 50 mg b.i.d. (N = 85), week 20
[22] = continued 50 mg b.i.d. (N = 85), week 24
[23] = continued 50 mg q.d. (N = 63), week 1
[24] = continued 50 mg q.d. (N = 63), week 2

O=C(Nc1nc2cccc(-c3ccc(CN4CCS(=O)(=O)CC4)cc3)n2n1)C1CC1 [Compound 1, cyclopropanecarboxylic acid {5-[4-(1,1-dioxo-thiomorpholin-4-ylmethyl)-phenyl]-[1,2,4]triazolo[1,5-a]pyridin-2yl}-amide]
[HDL] Mean CFB - 12 weeks results [1]: 0.10 mmol/L | [HDL] Mean percentage CFB - 12 weeks results [1]: 9% | [HDL] Median CFB - 12 weeks results [1]: 0.10 mmol/L | [HDL] Mean CFB - 12 weeks results [2]: 0.12 mmol/L | [HDL] Mean percentage CFB - 12 weeks results [2]: 9% | [HDL] Median CFB - 12 weeks results [2]: 0.10 mmol/L | [HDL] Mean CFB - 12 weeks results [3]: 0.20 mmol/L | [HDL] Mean percentage CFB - 12 weeks results [3]: 15% | [HDL] Median CFB - 12 weeks results [3]: 0.18 mmol/L | [HDL] Mean CFB - 12 weeks results [4]: 0.25 mmol/L | [HDL] Mean percentage CFB - 12 weeks results [4]: 20% | [HDL] Median CFB - 12 weeks results [4]: 0.25 mmol/L | [HDL] Mean CFB - 12 weeks results [5]: 0.26 mmol/L | [HDL] Mean percentage CFB - 12 weeks results [5]: 21% | [HDL] Median CFB - 12 weeks results [5]: 0.25 mmol/L | [HDL] Mean CFB - 12 weeks results [6]: 0.30 mmol/L | [HDL] Mean percentage CFB - 12 weeks results [6]: 23% | [HDL] Median CFB - 12 weeks results [6]: 0.25 mmol/L | [HDL] Mean CFB - 24 weeks results [7]: 0.01 mmol/L | [HDL] Mean percentage CFB - 24 weeks results [7]: 0.74% | [HDL] Median CFB - 24 weeks results [7]: 0.00 mmol/L | [HDL] Mean CFB - 24 weeks results [8]: 0.05 mmol/L | [HDL] Mean percentage CFB - 24 weeks results [8]: 3.77% | [HDL] Median CFB - 24 weeks results [8]: 0.05 mmol/L | [HDL] Mean CFB - 24 weeks results [9]: 0.07 mmol/L | [HDL] Mean percentage CFB - 24 weeks results [9]: 5.04% | [HDL] Median CFB - 24 weeks results [9]: 0.08 mmol/L | [HDL] Mean CFB - 24 weeks results [10]: 0.08 mmol/L | [HDL] Mean percentage CFB - 24 weeks results [10]: 6.08% | [HDL] Median CFB - 24 weeks results [10]: 0.10 mmol/L | [HDL] Mean CFB - 24 weeks results [11]: 0.07 mmol/L | [HDL] Mean percentage CFB - 24 weeks results [11]: 5.78% | [HDL] Median CFB - 24 weeks results [11]: 0.05 mmol/L | [HDL] Mean CFB - 24 weeks results [12]: 0.08 mmol/L | [HDL] Mean percentage CFB - 24 weeks results [12]: 6.74% | [HDL] Median CFB - 24 weeks results [12]: 0.05 mmol/L | [HDL] Mean CFB - 24 weeks results [13]: 0.05 mmol/L | [HDL] Mean percentage CFB - 24 weeks results [13]: 5.08% | [HDL] Median CFB - 24 weeks results [13]: 0.07 mmol/L | [HDL] Mean CFB - 24 weeks results [14]: 0.08 mmol/L | [HDL] Mean percentage CFB - 24 weeks results [14]: 6.59% | [HDL] Median CFB - 24 weeks results [14]: 0.09 mmol/L | [HDL] Mean CFB - 24 weeks results [15]: 0.03 mmol/L | [HDL] Mean percentage CFB - 24 weeks results [15]: 4.29% | [HDL] Median CFB - 24 weeks results [15]: 0.05 mmol/L | [HDL] Mean CFB - 24 weeks results [16]: 0.12 mmol/L | [HDL] Mean percentage CFB - 24 weeks results [16]: 9.99% | [HDL] Median CFB - 24 weeks results [16]: 0.10 mmol/L | [HDL] Mean CFB - 24 weeks results [17]: 0.13 mmol/L | [HDL] Mean percentage CFB - 24 weeks results [17]: 11.50% | [HDL] Median CFB - 24 weeks results [17]: 0.13 mmol/L | [HDL] Mean CFB - 24 weeks results [18]: 0.13 mmol/L | [HDL] Mean percentage CFB - 24 weeks results [18]: 11.21% | [HDL] Median CFB - 24 weeks results [18]: 0.14 mmol/L | [HDL] Mean CFB - 24 weeks results [19]: 0.10 mmol/L | [HDL] Mean percentage CFB - 24 weeks results [19]: 9.27% | [HDL] Median CFB - 24 weeks results [19]: 0.10 mmol/L | [HDL] Mean CFB - 24 weeks results [20]: 0.13 mmol/L | [HDL] Mean percentage CFB - 24 weeks results [20]: 11.13% | [HDL] Median CFB - 24 weeks results [20]: 0.15 mmol/L | [HDL] Mean CFB - 24 weeks results [21]: 0.15 mmol/L | [HDL] Mean percentage CFB - 24 weeks results [21]: 12.24% | [HDL] Median CFB - 24 weeks results [21]: 0.16 mmol/L | [HDL] Mean CFB - 24 weeks results [22]: 0.11 mmol/L | [HDL] Mean percentage CFB - 24 weeks results [22]: 10.05% | [HDL] Median CFB - 24 weeks results [22]: 0.12 mmol/L | [HDL] Mean CFB - 24 weeks results [23]: 0.02 mmol/L | [HDL] Mean percentage CFB - 24 weeks results [23]: 1.75% | [HDL] Median CFB - 24 weeks results [23]: 0.01 mmol/L | [HDL] Mean CFB - 24 weeks results [24]: 0.07 mmol/L | [HDL] Mean percentage CFB - 24 weeks results [24]: 4.74% | [HDL] Median CFB - 24 weeks results [24]: 0.08 mmol/L | [HDL] Mean CFB - 24 weeks results (continued 50 mg q.d. (N = 63), week 4): 0.06 mmol/L
